Reference: patent US20040044026A1, “3-Substituted quinuclidines and their use as nicotinic agonists” (priority 2000, published 2004)
Counter-ions that a name gives are not always drawn. Like-named read-outs stand apart in the source and are kept apart here.

Assays:
[1] = target: nicotinic receptors (non-selective); test: in vitro inhibition of 3H-epibatidin binding; conditions: radioligand 3H-epibatidin
Description: the in vitro inhibition of ^3H-epibatidin binding, which is a standard assay for determining non-selective binding to nicotinic receptors,
(§1) Such standard assays are described in e.g. WO 99/21834.
(§2) In this example the affinity of compounds of the invention for nicotinic acetylcholine receptors are investigated using standard assays described in WO 99/21834.
First the in vitro inhibition of ^3H-epibatidin binding, which is a standard assay for determining non-selective binding to nicotinic receptors, was determined.

[2] = target: α7-subtype of nicotinic receptors (Rattus norvegicus, UniProt Q05941); test: biochemical; format: binding
[3] = target: α4β2-subtype of nicotinic receptors (Rattus norvegicus, UniProt P09483+P12390); test: in vitro inhibition of 3H-cytisine binding
Description: the in vitro inhibition ^3H-cytisine binding, which is a standard assay for determining selective binding to α4β2 subtype of nicotinic receptors, and/or
as §1, §2
Next the in vitro inhibition ^3H-cytisine binding, which is a standard assay for determining selective binding to α4β2-subtype of nicotinic receptors, was determined.

Sequence of α4β2-subtype of nicotinic receptors (P09483 31-630): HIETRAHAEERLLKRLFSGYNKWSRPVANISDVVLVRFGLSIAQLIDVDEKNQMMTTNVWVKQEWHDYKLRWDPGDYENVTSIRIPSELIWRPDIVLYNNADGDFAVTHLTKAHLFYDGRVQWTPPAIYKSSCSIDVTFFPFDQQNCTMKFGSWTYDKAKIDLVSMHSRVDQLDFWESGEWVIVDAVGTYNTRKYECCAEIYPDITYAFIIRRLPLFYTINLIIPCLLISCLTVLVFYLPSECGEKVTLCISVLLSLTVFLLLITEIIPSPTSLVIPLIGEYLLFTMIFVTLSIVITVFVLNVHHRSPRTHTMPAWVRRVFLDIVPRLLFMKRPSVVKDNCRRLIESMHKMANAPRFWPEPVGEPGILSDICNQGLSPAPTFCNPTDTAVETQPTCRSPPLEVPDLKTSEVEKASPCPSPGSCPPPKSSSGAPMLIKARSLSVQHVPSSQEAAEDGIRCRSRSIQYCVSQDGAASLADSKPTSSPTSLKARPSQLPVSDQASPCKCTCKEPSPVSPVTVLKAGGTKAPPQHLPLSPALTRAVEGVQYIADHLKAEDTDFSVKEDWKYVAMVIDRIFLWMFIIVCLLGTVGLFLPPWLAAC
Sequence of α4β2-subtype of nicotinic receptors (P12390 25-500): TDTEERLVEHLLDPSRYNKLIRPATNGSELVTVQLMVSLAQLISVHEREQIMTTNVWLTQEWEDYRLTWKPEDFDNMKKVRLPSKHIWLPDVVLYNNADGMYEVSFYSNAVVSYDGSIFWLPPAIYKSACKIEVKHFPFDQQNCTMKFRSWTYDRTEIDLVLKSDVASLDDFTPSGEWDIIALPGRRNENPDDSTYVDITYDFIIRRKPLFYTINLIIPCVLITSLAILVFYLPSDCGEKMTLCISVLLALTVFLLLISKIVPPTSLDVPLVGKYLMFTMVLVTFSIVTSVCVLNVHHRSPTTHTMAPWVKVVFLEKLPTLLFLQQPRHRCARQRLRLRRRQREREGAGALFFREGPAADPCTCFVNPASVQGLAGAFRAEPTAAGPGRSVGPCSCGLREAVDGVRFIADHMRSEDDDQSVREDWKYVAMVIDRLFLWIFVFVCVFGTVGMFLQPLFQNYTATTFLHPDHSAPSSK
Sequence of α7-subtype of nicotinic receptors (Q05941 23-502): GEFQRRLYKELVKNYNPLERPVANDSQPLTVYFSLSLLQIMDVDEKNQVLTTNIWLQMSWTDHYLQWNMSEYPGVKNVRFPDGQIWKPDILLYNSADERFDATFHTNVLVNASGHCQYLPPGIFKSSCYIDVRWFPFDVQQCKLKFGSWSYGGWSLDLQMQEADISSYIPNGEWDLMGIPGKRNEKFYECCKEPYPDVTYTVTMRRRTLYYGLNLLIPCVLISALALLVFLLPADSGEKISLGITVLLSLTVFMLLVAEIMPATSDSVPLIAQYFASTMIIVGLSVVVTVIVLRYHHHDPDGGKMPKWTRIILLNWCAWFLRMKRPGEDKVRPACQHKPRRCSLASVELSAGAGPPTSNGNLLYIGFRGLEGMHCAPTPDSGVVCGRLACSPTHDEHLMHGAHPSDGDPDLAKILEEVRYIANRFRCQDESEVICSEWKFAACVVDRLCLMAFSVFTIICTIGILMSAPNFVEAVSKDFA

Row | SMILES | IC50 [1] | IC50 [2] | IC50 [3] | IC50 ([3]; radioligand 3H-cytisine, read-out: in vitro Inhibition of Binding (IC50) 3H-cytisine binding)
1 | c1ccc2cc(C3CN4CCC3CC4)ccc2c1 (racemic) [Compound C1, (±)-3-(2-Naphthyl)-quinuclidine fumaric acid salt] | 7.5 µM | 0.15 µM | 6 µM | 
2 | C1=C(c2ccc3ccccc3c2)C2CCN1CC2 [Compound B1, 3-(2-Naphthyl)-quinuclidine-3-ene fumaric acid salt] | 17 µM | 0.058 µM |  | 10 µM
